In assay [1] the target is T1, human 5-HT1A receptors (Homo sapiens, UniProt P08908).
T1 construct: expressed in transfected cells; host or cells: CHO cells, stably transfected
T1 sequence (P08908 1-422): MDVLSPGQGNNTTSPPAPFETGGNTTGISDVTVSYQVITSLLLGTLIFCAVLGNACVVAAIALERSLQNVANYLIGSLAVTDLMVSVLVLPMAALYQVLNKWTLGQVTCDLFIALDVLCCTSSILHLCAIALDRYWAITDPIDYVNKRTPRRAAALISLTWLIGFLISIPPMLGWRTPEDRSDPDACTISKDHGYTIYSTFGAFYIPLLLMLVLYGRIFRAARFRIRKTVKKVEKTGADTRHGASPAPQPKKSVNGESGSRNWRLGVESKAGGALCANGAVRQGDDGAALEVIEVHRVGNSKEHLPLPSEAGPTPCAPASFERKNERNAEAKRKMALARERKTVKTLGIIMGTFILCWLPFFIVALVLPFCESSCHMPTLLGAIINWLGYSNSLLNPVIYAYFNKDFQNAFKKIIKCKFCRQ
Nature of the assay: 8-OH-DPAT binding in CHO cells stably transfected with human 5HT1a receptor. To be noted: displacement of [3H]8-OH-DPAT, CHO cells with human 5-HT1A; read-out: 5-HT1A Receptor Affinity Ki. As to the method: High affinity for the serotonin 5-HT1A receptor was established by testing the claimed compound's ability to displace [^3H] 8-OH-DPAT (dipropylaminotetralin) from the 5-HT1A serotonin receptor following a modification of the procedure of Hall et al., (J. Neurochem., 1985, 44: 1685) which utilizes CHO cells stably transfected with human 5-HT1A receptors.
Stabily transfected CHO cells were grown in DMEM containing 10% heat inactivated FBS and non-essential amino acids. Cells were scraped off the plate, transferred to centrifuge tubes, and washed twice by centrifugation (2000 rpm for 10 min., 4° C.) in buffer (50 mM Tris pH 7.5). The resulting pellets were aliquoted and placed at −80° C. On day of assay, the cells were thawed on ice, and resuspended in buffer. The binding assay was performed in a 96 well microtiter plate in a total volume of […].
Non-specific binding was determined in the presence of […] 5HT, final ligand concentration is 1.5 nM. Following a 30 minute incubation at room temperature, the reaction was terminated by the addition of ice cold buffer and rapid filtration through a GF/B filter presoaked for 30 minutes in 0.5% PEI. Compounds were initially tested in a single point assay to determine percent inhibition at […]. Subsequently, Ki values were determined for compounds defined to be active.
Background: Displacement assays read how much labelled ligand stays bound in the presence of the test substance.

The next assay has as its target h5-HT Transporter (Homo sapiens, UniProt P31645). Nature of the assay: h5-HT Transporter Function (Table 1). The assay is classed as biochemical.
For assay [2], the target named is T1, human 5-HT1A receptors. Put plainly: 35S-GTPγS binding assay, membranes containing cloned human 5-HT1A receptors. The assay is classed as biochemical. To be noted: read-out: 5-HT1A Function GTPγS IC50. The text has this:
(§1) The agonist or antagonist activity at 5-HT1A receptors was established by using two different assays. The ^35S-GTPγS binding assay similar to that used by Lazareno and Birdsall (Br. J. Pharmacol., 1993, 109: 1120) was used to determine the test compound's ability to affect the binding of ^35S-GTPγS to membranes containing cloned human 5-HT1A receptors. Agonists produce an increase in binding whereas antagonists produce no increase but rather reverse the effects of the standard agonist 8-OH-DPAT. The test compound's maximum stimulatory effect is represented as the Emax, while its potency is defined by the EC50. The test compound's maximum inhibitory effect is represented as the Imax, while its potency is defined by the IC50. The second assay measured cAMP accumulation upon binding of the ligand to the 5-HT1A receptor. Antagonists block the effect of the standard agonist 8-OH-DPAT resulting in an increase in cAMP accumulation while agonists have the reverse effect. The test compound's maximum stimulatory or inhibitory effect is represented as the Emax while its potency is defined by either IC50 for an antagonist or EC50 for an agonist. [^3H]-8-OH-DPAT was used to determine maximum agonist or antagonist response in both functional assays.
(In general: GTPγS is a poorly hydrolysed GTP analogue; its binding reports G protein activation.)

The target in another assay is T2, h5HT1a receptor (Homo sapiens, UniProt P08908).
T2 construct: expressed in transfected cells; host or cells: CHO cells, stably transfected
T2 sequence (P08908 1-422): T1 sequence (P08908 1-422)
Nature of the assay: cAMP RIA in CHO cells stably transfected with the h5HT1a receptor. It counts as cell-based. To be noted: for pEC50: agonist, forskolin-stimulated cAMP, read-out: 5-HT1A Function cAMP EC50; for pIC50: antagonist, reversal of agonist 8-OH-DPAT, read-out: 5-HT1A Function cAMP IC50.
Excerpt: as §1
Stabily transfected CHO cells were grown in DMEM containing 10% heat inactivated FBS and non-essential amino acids. The cells were plated at a density of 10(6) cells per well in a 24 well plate and incubated for 2 days in a CO2 incubator. On the second day, the media was replaced with 0.5 ml treatment buffer (DMEM+25 mM HEPES, 5 mM theophylline, 10 uM pargyline) and incubated 10 minutes at 37° C.
Wells were treated with forskolin (1 μM final conc) followed immediately by test compound (0.1 and 1 uM for initial screen) and incubated for an additional 10 min at 37° C. The reaction was terminated by removal of the media and addition of 0.5 ml ice cold assay buffer (supplied in RIA kit). Plates were stored at −20° C. prior to assessment of cAMP formation by RIA.
Compounds shown to have no agonist activities were further analyzed for ability to reverse agonist activity. In separate experiments, 6 concentrations of antagonist were preincubated for 20 minutes prior to the addition of agonist and forskolin. Cells were harvested as described. The cAMP kit was supplied by Amersham and the RIA was performed as per kit instructions.

Each structure is given as a SMILES string. pEC50, pIC50, pKi: −log10 of the molar value.

Sequence of h5-HT Transporter (P31645 whole entry): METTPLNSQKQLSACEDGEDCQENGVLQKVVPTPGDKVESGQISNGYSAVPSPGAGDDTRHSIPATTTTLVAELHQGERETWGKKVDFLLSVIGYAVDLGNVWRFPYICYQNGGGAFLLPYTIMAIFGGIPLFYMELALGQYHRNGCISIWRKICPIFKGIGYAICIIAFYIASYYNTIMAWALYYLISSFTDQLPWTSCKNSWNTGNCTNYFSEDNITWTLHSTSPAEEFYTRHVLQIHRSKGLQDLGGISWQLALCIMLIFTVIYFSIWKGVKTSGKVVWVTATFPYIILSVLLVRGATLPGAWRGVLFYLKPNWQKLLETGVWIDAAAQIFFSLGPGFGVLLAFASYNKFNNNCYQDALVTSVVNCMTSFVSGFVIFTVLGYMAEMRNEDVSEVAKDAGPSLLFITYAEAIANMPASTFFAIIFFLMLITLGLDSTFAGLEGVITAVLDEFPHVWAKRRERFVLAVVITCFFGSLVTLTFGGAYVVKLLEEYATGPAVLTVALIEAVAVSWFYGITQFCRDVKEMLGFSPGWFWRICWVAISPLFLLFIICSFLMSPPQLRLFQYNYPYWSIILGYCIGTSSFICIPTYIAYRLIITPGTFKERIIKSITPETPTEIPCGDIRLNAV

Take `CCCN(CCCc1c[nH]c2ccc(F)cc12)[C@H]1COc2c(OC)ccc(C(N)=O)c2C1` [Example 10, (3R)-3-{propyl[3-(5-fluoro-1H-indol-3-yl)propyl]amino}-8-methoxychromane-5-carboxamide]: the pKi – broadly, −log10 of the Ki, conventionally taken in molar units – at human 5-HT1A receptors [1] was 7.69. In addition, the pIC50 – broadly, the negative decadic logarithm of the IC50, by convention in mol/L – against h5-HT Transporter is 8.10; on human 5-HT1A receptors [2], 6.49. Further, on h5HT1a receptor, the pEC50 (as a rule, the EC50 on a negative log10 scale, so that one unit is a factor of ten) is 6.73.

With `CCCCN(CCCc1c[nH]c2ccc(F)cc12)[C@H]1COc2c(OC)ccc(C(N)=O)c2C1` [Example 11, (3R)-3-{butyl[3-(5-fluoro-1H-indol-3-yl)propyl]amino}-8-methoxychromane-5-carboxamide], the pKi on human 5-HT1A receptors [1] is 7.01. The pIC50 is 6.55 against h5-HT Transporter, 5.52 at human 5-HT1A receptors [2] and 6.43 on h5HT1a receptor.

On to `CNC(=O)c1ccc(OC)c2c1C[C@@H](N(CCCc1c[nH]c3ccc(F)cc13)C1CCC1)CO2` [Example 16, (3R)-3-{cyclobutyl[3-(5-fluoro-1H-indol-3-yl)propyl]amino}-8-methoxychromane-5-methylcarboxamide], for which the pKi on human 5-HT1A receptors [1] was 6.24. In addition, the pIC50 against h5-HT Transporter was 7.26; at human 5-HT1A receptors [2], 6.13. Also, the pEC50 on h5HT1a receptor is 6.49.

On to `Cc1ccc(C(N)=O)c2c1OC[C@H](N(CCCc1c[nH]c3ccc(F)cc13)C1CCC1)C2` [Example 20, (3R)-3-{cyclobutyl[3-(5-fluoro-1H-indol-3-yl)propyl]amino}-8-methylchromane-5-carboxamide], for which the pKi on human 5-HT1A receptors [1] was 8.37. Also, the pIC50 at h5-HT Transporter was 7.28; on human 5-HT1A receptors [2], 6.51. For the same compound, on h5HT1a receptor, the pEC50 was 7.29.

`CCc1ccc(C(N)=O)c2c1OC[C@H](N(CCCc1c[nH]c3ccc(F)cc13)C1CCC1)C2` [Example 21, (3R)-3-{cyclobutyl[3-(5-fluoro-1H-indol-3-yl)propyl]amino}-8-ethylchromane-5-carboxamide]: at human 5-HT1A receptors [1], the pKi was 8.23. Moreover, the values for the pIC50 at h5-HT Transporter and on human 5-HT1A receptors [2] were 7.04 and 6.14, respectively. The pEC50 on h5HT1a receptor was 7.81.

As for `CSc1ccc(C(N)=O)c2c1OC[C@H](N(CCCc1c[nH]c3ccc(F)cc13)C1CCC1)C2` [Example 22, (3R)-3-{cyclobutyl[3-(5-fluoro-1H-indol-3-yl)propyl]amino}-8-(methylthio)chromane-5-carboxamide], the pKi on human 5-HT1A receptors [1] is 7.77. The values for the pIC50 at h5-HT Transporter, at human 5-HT1A receptors [2] and on h5HT1a receptor were 6.44, 5.93 and 7.22, respectively.

As to `CNc1ccc(C(N)=O)c2c1OC[C@H](N(CCCc1c[nH]c3ccc(F)cc13)C1CCC1)C2` [Example 25, (3R)-3-{cyclobutyl[3-(5-fluoro-1H-indol-3-yl)propyl]amino}-8-(methylamino)-chromane-5-carboxamide], the negative logarithm of the Ki (pKi) on human 5-HT1A receptors [1] was 7.29. In addition, the pIC50 at h5-HT Transporter was 6.86; on human 5-HT1A receptors [2], 5.45; on h5HT1a receptor, 6.85.

For the origin of these results see patent publication US20080221193A1, “3-AMINO CHROMANE DERIVATIVES” (Wyeth, priority 2006, published 2008).
